US20070178151A1, “Spray dried pharmaceutical compositions” (priority 2004, published 2007)
In brackets after ≈: the same amount, converted by molar mass.

Assay: aqueous solubility of talnetant
Type: physicochemical
Settings: aqueous medium
Description: Typically drugs with low aqueous solubility are absorbed slowly across the walls of the gastrointestinal tract (GIT) due to poor dissolution of the solid in the GIT leading to a small diffusive driving force.

- solubility (aqueous buffer, pH 7.0): ~1 µg/mL (≈ 2.61 µM)
- solubility (pH 1, simulated gastric fluid): ~30 µg/mL (≈ 78.4 µM)
SMILES: CC[C@H](NC(=O)c1c(O)c(-c2ccccc2)nc2ccccc12)c1ccccc1 [Talnetant, (S)-(−)-N-(α-ethylbenzyl)-3-hydroxy-2-phenylquinoline4-carboxamide]
